# Experimental data reported in publication PMC8637440, “Structural Modifications Yield Novel Insights Into the Intriguing Pharmacodynamic Potential of Anti-inflammatory Nitro-Fatty Acids” (Frontiers in Pharmacology, 2021).
# Where a name gives a salt, the structure may show the parent alone. Residues, ends and D or L forms follow the SMILES beside them. *: point of attachment. Cbz = O=C(OCc1ccccc1)*
# How the values were obtained:
# [1] = tested on: Nrf-2; test: Nrf-2 induction in HCT-116 cells (Western blot and ELISA); format: cell-based, human; details: 10 µM, 4 h, HCT-116, Western blot and ELISA
# Protocol: (§1) The Nrf-2 and NF-κB transcription factors in the nuclear extracts were detected using an Nrf-2 Transcription Assay Kit (Cayman Chemical, # 600590) and NF-κB (p65 and p50) Transcription Factor Assay Kit (Cayman Chemical, # 10007889 and # 10006912). Prior to assay performance, the nuclear extracts were generated using a Nuclear Extraction Kit (Cayman Chemical, # 10009277). The assay was performed according to the manufacturer’s instructions. For all kits, the nuclear extracts were incubated overnight at 4°C. Development was carried out for 15–20 min or until the wells turned medium to dark blue. Five minutes after the stop solution had been added, the absorbance was read at 450 nm using a plate reader.
# HCT-116 and A549 cells were washed with 1× PBS, and cell extracts were generated using a Nuclear Extraction Kit (Cayman Chemical, #10009277) according to the manufacturer’s instructions, whereas whole-cell lysates were obtained using SDS lysis buffer (55.5 mM Tris-HCl pH 6.8, 2.2% SDS, 9% glycerol supplemented with protease (cOmplete® Protease Inhibitor Cocktail, Roche, Mannheim, Germany) and phosphatase (PhosStop® Easy Pack, Roche, Mannheim, Germany) inhibitors. Protein concentrations from the nuclear and cytosolic fractions were determined with a bicinchoninic acid (BCA) protein assay kit (Pierce™, Rockford, Illinois, United States). Cytoplasmic and nuclear extracts (100 µg each) and 30 µg whole-cell lysates were diluted in 5× Laemmli loading dye and denatured for 10 min at 95°C, loaded on a 10% SDS polyacrylamide gel, and separated by gel electrophoresis for 15 min at 80 V followed by 60 min at 120 V. The separated proteins were blotted onto a nitrocellulose membrane (Hybond-C Extra, Amersham Biosciences Ltd., UK) using the Mini Trans-Blot® module (Bio-Rad, Hercules, California, United States) for 90 min at 90 V. The membrane was blocked with Odyssey blocking buffer (Li-Cor Biosciences, Bad Homburg, Germany) or 5% milk powder in TBS-T (Tris Buffered Saline with 0.1% Tween) for 1 h at room temperature (RT). The membranes were incubated with the primary antibodies overnight at 4°C, and then with the secondary antibodies for 1 h at RT. The primary antibodies were diluted 1:1,000 and the secondary antibodies were diluted 1:10,000 to 1:20,000. […]
# FIGURE 2 Effects of NFA on Nrf-2 expression in colorectal cancer cells. HCT-116 cells were treated with 10 µM NFA and tBHQ and/or MMF for 4 h, and Nrf-2 levels were analyzed by western blotting and ELISA. […] (B) Nrf-2 expression levels were evaluated with an ELISA after incubation with NFA with different carbon chain lengths and Michael acceptor positions. […]
# [2] = tested on: HCT-116 cells; test: WST-1 cell viability assay, HCT-116; format: cell-based, human; details: WST-1 cell viability, 24 h, n.i. = no inhibition observed
# Protocol: (§2) Cell viability was analyzed with the WST-1 assay based on the cleavage of the stable tetrazolium salt WST-1 by the mitochondrial reductase system. Cells were seeded in the appropriate densities in a clear 96-well plate and settled overnight at 37°C in 5% CO2. The next day, the cells were treated with NFA or the substances of interest (≤0.1% dimethyl sulfoxide [DMSO]) and incubated for 24 or 48 h at 37°C in 5% CO2. Cell viability was analyzed by adding 10 µl WST-1 solution (Roche, Basel, Switzerland) and subsequently incubating the cells at 37°C for another 30–40 min. Absorbance was measured at 450 nm with a control wavelength at 620 nm using a plate reader.
# (§3) Besides targeting the NF-κB pathway, the anti-tumorigenic effects of NFA can be observed by a reduction of colorectal cancer cell viability. […] Again, the cytotoxic effects of NFA were determined in HCT-116 and HT-29 colorectal cancer cells in the present study. […] HCT-116 cells were treated with increasing concentrations of NFA differing in chain length and Michael acceptor position for 24 h, and cell viability was determined using the WST-1 assay. Due to their prolonged cell division rate and their lack of sensitivity towards NFA ([Kühn et al., 2018]), HT-29 cells were treated for 48 h to gain improved NFA activity.
# [3] = tested on: HT-29 cells; test: WST-1 cell viability assay, HT-29; format: cell-based, human; details: n.i. = no inhibition observed
# Protocol: as §2, §3
# [4] = target: T1, 5-LO (Homo sapiens, UniProt P09917); test: 5-LO product formation (LTB4, 5-HETE) in intact PMNL, A23187 + 20 µM AA; format: cell-based; details: 10 µM, A23187 2.5 µM + 20 µM AA (data not shown)
# T1 construct: endogenous in cells; host or cells: human PMNL from buffy coats
# T1 sequence (P09917 1-674): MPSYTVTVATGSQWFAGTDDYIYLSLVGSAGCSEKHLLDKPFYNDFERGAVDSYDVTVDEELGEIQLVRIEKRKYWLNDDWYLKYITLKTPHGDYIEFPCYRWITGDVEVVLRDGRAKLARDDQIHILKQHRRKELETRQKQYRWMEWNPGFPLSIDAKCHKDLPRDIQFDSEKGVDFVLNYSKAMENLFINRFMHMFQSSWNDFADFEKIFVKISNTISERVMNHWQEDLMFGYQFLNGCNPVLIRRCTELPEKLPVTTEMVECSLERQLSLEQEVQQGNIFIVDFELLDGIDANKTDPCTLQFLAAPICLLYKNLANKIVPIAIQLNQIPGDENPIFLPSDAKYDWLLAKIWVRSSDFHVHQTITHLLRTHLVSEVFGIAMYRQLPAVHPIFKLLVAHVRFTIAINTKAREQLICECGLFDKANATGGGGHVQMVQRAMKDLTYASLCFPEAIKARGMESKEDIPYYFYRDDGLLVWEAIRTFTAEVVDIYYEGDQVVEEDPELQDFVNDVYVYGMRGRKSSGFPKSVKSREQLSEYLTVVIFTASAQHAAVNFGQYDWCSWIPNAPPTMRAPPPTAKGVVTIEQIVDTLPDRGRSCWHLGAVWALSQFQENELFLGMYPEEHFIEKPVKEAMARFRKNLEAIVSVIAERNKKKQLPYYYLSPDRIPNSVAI
# Protocol: Buffy coats from different donors of different blood types were commercially obtained from DRK Blutspendedienst Baden-Württemberg Institute Frankfurt. Donors have given their written consent. […] Following separation, the supernatant was transferred very gently to new 50-ml tubes containing lymphocyte separation medium (LSM) and centrifuged for 10 min at 800 ×g at RT with the centrifuge brake turned off. Afterwards, the supernatant was decanted carefully to discard the platelets and monocytes. The PMNL were washed with 1× PBS before the residual erythrocytes were lysed in two cycles: the cell pellet was resuspended with 10 ml H2O and vortexed for 45 s, and lysis was stopped with 40 ml 1 × PBS. After 10-min centrifugation at 200 ×g at RT, the cycle was repeated once. The supernatant was aspirated, the cell pellet resuspended in 5 ml PBS/glucose and initially separated PMNL preparations with different blood types were finally pooled to gain a sufficient number of cells. […] The enzyme was diluted in PBS/EDTA/ATP, transferred into 5-ml glass tubes, and stored on ice. […] The reaction was stopped by placing the glass tubes on ice. The supernatants were transferred to 1.5 ml reaction tubes and stored at −80°C before LC-MS (liquid chromatography and mass spectrometry) analysis of LTB4 and HETEs as described in 2.6 at the Institute of Pharmacology, Goethe University, University Hospital, Germany. The lipid mediators LTB4, hydroxyeicosatetraenoic acids, 5(S)-HETE, 12(S)-HETE, 15(S)-HETE and 20-HETE were analyzed using liquid chromatography tandem-mass spectroscopy (LC-MS/MS). The LC-MS/MS system consisted of a 5500 QTrap mass spectrometer (Sciex, Darmstadt, Germany), operating in negative ESI mode, an Agilent 1200 HPLC system (Agilent, Waldbronn, Germany) and an HTC Pal autosampler (Chromtech, Idstein, Germany). Sample extraction of LTB4 and HETEs were performed using liquid-liquid extraction: 200 µl of the sample were gently mixed with 20 µl of methanol and 20 µl of internal standard solution and extracted twice with 600 µl ethyl acetate. […] Working solutions of all analytes were prepared in methanol containing 0.1% BHT. The calibration standards were prepared by further dilution of the working standards. […] The residues were reconstituted in 50 µl of methanol:water:BHT (50:50:10^−4, v/v/v) prior to injection into the LC-MS/MS system. Chromatographic separation was achieved using a Gemini NX C18 column (150 mm × 2 mm ID, 5 µm, Phenomenex, Aschaffenburg, Germany) with a precolumn of the same material. A linear gradient was employed at a flow rate of 0.5 ml/min and a total run time of 17.5 min. Mobile phases were A water:ammonia (100:0.05, v/v) and B acetonitrile:ammonia (100:0.05, v/v). […] All data were acquired using Analyst software v1.6.2 and quantitation was performed by MultiQuant software v3.0 (both Sciex, Darmstadt, Germany) using the internal standard method (isotope-dilution mass spectrometry). Calibration curves were calculated by linear regression with 1/x.
# [5] = tested on: NF-κB p65; test: NF-κB p65 transcription factor ELISA in TNFα-stimulated HCT-116 cells; format: cell-based; details: Homo sapiens, HCT-116, 4 h, read-out: inhibition of NF-κB p65 signaling
# Protocol: as §1
# The proteasome inhibitor MG132 ([Lee and Goldberg, 1998]) was used as a positive control, as proteasomal inhibition leads to stabilization of I-κB and thus inhibits the activation of the NF-κB signaling pathway. We used a MG132 incubation period of 4 h as longer incubations have been described to activate NF-κB signaling ([Lee et al., 2013]).
# FIGURE 1 Effects of NFA on the NF-κB p65 and p50 signaling pathway in colorectal cancer cells. […] Incubation for 4 h with the proteasome inhibitor MG132 (1 µM) served as the positive control. […] Values are normalized to protein concentration and unstimulated vehicle control. Data are represented as mean ± SD of (A) n = 3 (DMSO, 16.9.9, 9NOA control of right panel, 18.4.4, 18.6.7, and 18.9.10), n = 4 (all other derivatives) and (B) n = 5. Statistical significance was calculated by one-way analysis of variance (ANOVA) with Bonferroni post-test. *p ≤ 0.03, **p ≤ 0.0021, ***p ≤ 0.0002, ****p ≤ 0.0001 were considered significant versus TNF-α treatment.
structure (smiles),measurement,setting,value
"COC(=O)/C=C/C(=O)O [MMF, monomethyl fumarate]",induction of Nrf-2 (protein levels / signaling),[1],increase
"CC1=CC(=O)C(C(C)C)=CC1=O [TQ, thymoquinone, reference compound]",IC50,"[2]; Homo sapiens, HCT-116",4.2 ± 1.2 µM
same,HCT-116 (24 h) IC50,[2],suppressed HCT-116 and HT-29 cell viability effectively
same,IC50,"[3]; Homo sapiens, HT-29, 48 h",10.3 ± 1.1 µM
same,HT-29 (48 h) IC50,[3],suppressed HCT-116 and HT-29 cell viability effectively
"COc1ccc2c(c1)CC[C@@H]1[C@@H]2CC[C@]2(C)[C@@H](NCCCCCCN3C(=O)C=CC3=O)CC[C@@H]12 [U73122, reference compound]",inhibition of 5-LO product formation in PMNL,[4],> 90%
"CC(C)C[C@@H](C=O)NC(=O)[C@H](CC(C)C)NC(=O)[C@H](CC(C)C)NC(=O)OCc1ccccc1 [MG132, reference compound] (Cbz-Leu-Leu-Leu-aldehyde)",inhibition at 1 µM,[5],~90%
"CC(C)(C)c1cc(O)ccc1O [tBHQ, tert-butylhydroquinone]",induction of Nrf-2 (protein levels / signaling),[1],increase
